# Measured values from patent US20230372350A1, “ASTROCYTIC TRPA1 CHANNEL INHIBITION AS A NOVEL NEUROPROTECTIVE THERAPEUTIC TARGET IN THE PRODROMAL PHASES OF ALZHEIMER'S DISEASE” (priority 2020, published 2023).
# Tests used:
# [1] = tested on: CA1 pyramidal neurons; experiment: Acute in vitro application on hippocampal slices: CA1 neuronal activity; type: cell-based, mouse; conditions: 1-month old APP/PS1-21 animals
# Method: Coronal sections of the hippocampus (thickness 300 μm) were prepared from APP/PS1-21 transgenic mice (1 month and 3 months old) or from WT mice from the same litter. The mice were sacrificed by decerebration and decapitation. The brain was quickly removed and sectioned in ice-cold ACSF containing (in mM) : 2.5 KCl, 7 MgCl2, 0.5 CaCl2, 1.2 NaHPO4, 25 NaHCO3, 11D-glucose and 234 sucrose bubbled with 95% of O2 and 5% of CO2 with a V[…] vibratome (Leica, Germany). The sections containing the hippocampus were placed in ACSF containing (in mM) : 126 NaCl, 2.5 KCl, 1.2 MgCl2, 2.5 CaCl2, 1.2 NaH2PO4 bubbled with 95% of O2 and 5% of CO2 and supplemented with 1 mM of sodium pyruvate at room temperature for a recovery period. Whole-cell recordings were performed on visually identified CA1 pyramidal neuron somas. […] The sEPSCs and their kinetics were analyzed, after a stabilization period of 10 minutes, 5 minutes from the recordings. Access resistance was constantly monitored and recordings were excluded from this study when this parameter varied more than 20% during the experiment. Recordings were analyzed using the Clampfit module of pClamp8 software (Molecular Devices, USA) with a single one at 20 pA to exclude miniature sEPSCs.
# [2] = tested on: APP/PS1-21 and WT mice; experiment: Chronic intraperitoneal treatment: Barnes maze; type: in vivo, mouse; conditions: 6-months old
# Method: This solution is then diluted to 1 μg/μl in an isotonic solution containing 1% Pluronic F-127 and 0.9% NaCl. The animals are injected daily intraperitoneally at a dose of 5 mg/kg of body mass. Sterile 0.5 ml BD MicroFine syringes with no dead volume, equipped with a 30G (0.3 mm) needle are used for the injections. The injection is started from the 14th postnatal day (appearance of the expression of the Thy1gene promoter in the hippocampus, triggering the overexpression of Aβ in the APP/PS1-21 murine model) The mice were placed in the center of a well-lit open platform (BioSeb, diameter 120 cm). The platform includes 20 holes (diameter 5 cm) with an escape box (target) attached below any of the holes. On the first day of training, the mice were first placed in the middle of the platform and gently guided to the target after 5 minutes of free exploration. Once the mice entered the escape box, they remained there for 1 minute before being returned to their cage. During the 3 days of the training/acquisition phase, the mice performed 3 trials per day with an interval between trials of 20 minutes. The mice had 180 seconds to find the escape box or were gently guided thereto. On day 4 (test day), the escape box was removed and the mice were allowed to freely explore the maze for 60 seconds. The time taken to reach the target (latency) and the exploration time of the target area (target hole±1) were analyzed. All data were recorded and analyzed with EthoVision XT9 (Noldus). The working memory is perhaps one of the most studied aspects of memory impairment in Alzheimer's disease. The inventors administered daily the TRPA1 channel specific inhibitor (HC030031) or the carrier intraperitoneally (5 mg/kg of body mass) from the 14th postnatal day up to 6 months in APP/PS1-21 and wild-type WT mice.
# [3] = tested on: stratum radiatum synapses of APP/PS1-21 and WT mice; experiment: Chronic intraperitoneal treatment: electron microscopy of astrocyte coverage of synapses; type: in vivo, mouse; conditions: 3-months old, i.p. treatment
# Method: This solution is then diluted to 1 μg/μl in an isotonic solution containing 1% Pluronic F-127 and 0.9% NaCl. The animals are injected daily intraperitoneally at a dose of 5 mg/kg of body mass. Sterile 0.5 ml BD MicroFine syringes with no dead volume, equipped with a 30G (0.3 mm) needle are used for the injections. The injection is started from the 14th postnatal day (appearance of the expression of the Thy1gene promoter in the hippocampus, triggering the overexpression of Aβ in the APP/PS1-21 murine model) Hippocampi were dissected and fixed with 1.7% of glutaraldehyde in 0.1 M phosphate buffer at pH 7.4 for 48 hours at room temperature. The CA1 region was dissected under a binocular magnifying glass and fixed again for 2 hours in the same solution. Samples were then washed with buffer and post-fixed with 1% of osmium tetroxide and 0.1M phosphate buffer with pH 7.2 for 1 hour at 4° C. After thorough washing with water, the cells were then stained with 1% of uranil acetate with pH 4 in water for 1 hour at 4° C. before being dehydrated by successive alcohol baths (30%-60%-90%-100%-100%-100%) and incubated with a 1:1 epon/ethanol at 100% mixture for 1 hour and several baths of fresh epoxy resin (Sigma-Aldrich, France) for 3 hours. Finally, the samples were included in a capsule filled with resin which was allowed to polymerize for 72 h at 60° C. […]
# [4] = APP/PS1-21 mice, 5 mg/kg i.p. daily from 14th postnatal day
# [5] = WT control mice, chronic treatment
smiles,measurement,setting,value
"CC(C)c1ccc(NC(=O)Cn2cnc3c2c(=O)n(C)c(=O)n3C)cc1 [HC030031, 2-(1,3-Dimethyl-2,6-dioxo-1,2,3,6-tetrahydro-7H-purin-7-yl)-N-(4-isopropylphenyl)acetamide]",neuronal hyperactivity (CA1),[1],fully restored
same,"area under the curve for latency to reach the escape box (learning phase, working memory)",[2]; [4],595.9±77.2
same,first latency to the target area during the trial (reference memory),[2]; [4],18.5 ± 4.2 s
same,reference memory performance,[2]; [5],no impact
same,working memory performance,[2]; [5],no impact
same,synapses enveloped (astrocyte coverage of stratum radiatum synapses),[3]; APP/PS1 mice,64.0±1.5%
same,synapses enveloped (astrocyte coating),[3]; WT mice,62.7±2.7%
